US7015306B2 (BioSynthema, Inc., priority 1999, dated 2006)
*1 amine or outer side, *2 acyl side, *3 side chain or, on linkers, in order; H or OH if unused. Where a SMILES comes first, the peptide text is derived from it. [ ]: non-standard residue; d: D form. The star is where a group is joined. ξ: configuration not given here. Abu(1-amidino-4-piperidyl) = N=C(N)N1CCC(CC[C@H](N)C(=O)O)CC1; Ala(piperidin-4-yl) = O=C([C@H](CC1CCN([*:3])CC1)N[*:1])[*:2]; Gly(1-amidinopiperidin-4-yl) = N=C(N)N1CCC([C@H](N)C(=O)O)CC1; Ala(1-amidino-4-piperidyl) = N=C(N)N1CCC(C[C@H](N)C(=O)O)CC1; DTPA = O=C(O)CN(CCN(CC(=O)O)CC(=O)O)CCN(CC(=O)O)CC(=O)*; Phe(4-guanidino) = N=C(N)Nc1ccc(C[C@H](N)C(=O)O)cc1; ξGly(4-Pip(1-amidino)) = N=C(N)N1CCC(C(N)C(=O)O)CC1; X2 = NC[C@H]1CC[C@H](C[C@H](N[*:1])C(=O)[*:2])CC1; X1 = CC(C)C[C@@H](CN[C@@H](CC(C)C)C(N)=O)N*; X3 = CC[C@H](C)[C@@H](COC(=O)[*:2])N[*:1]; Chg = N[C@H](C(=O)O)C1CCCCC1; Tle = CC(C)(C)[C@H](N)C(=O)O; NHOH = ON*

Experiments:
[1] = In vitro urine stability assay (HPLC) of In-111 labeled peptide; format: in vitro ADME; conditions: for remaining at 4 h: rat, t = 4 h
Method: (§1) All reagents were purchased from Sigma unless otherwise noted. The peptide and ^111InCl3 in 0.05 N HCl were incubated in a sodium acetate/ascorbic acid buffer for 30 minutes at room temperature. The reaction was diluted with 5% ethanol/95% PBS before using in subsequent in vitro assays.
(§2) Human serum was purchased from Sigma (H 1388). The labeled peptide was incubated in either human serum or rat urine at 37EC for the specified amount of time. An aliquot was filtered through a 0.45 μm syringe filter prior to HPLC injection.

[2] = In vitro serum stability assay (HPLC) of In-111 labeled peptide; format: in vitro ADME, human; conditions: for remaining at 4 h: t = 4 h
Method: as §1, §2

[3] = 37EC, read-out: HPLC Evaluation of Urine Stability at 37EC, Urine, t = 4 h
[4] = human serum, 37EC, read-out: HPLC Evaluation of Serum Stability at 37EC, Serum, t = 4 h

| SMILES | % of peptide at 4 hours after incubation at 37EC, Urine ([1]; rat urine, 37EC, 4 hours) | % of peptide at 4 hours after incubation at 37EC, Serum ([2]; human serum, 37EC, 4 hours) | other results |
| --- | --- | --- | --- |
| CC[C@H](C)[C@H](NC(=O)[C@H](Cc1ccc(O)cc1)NC(=O)[C@@H]1CCCN1C(=O)[C@H](CCCNC(=N)N)NC(=O)C(CCc1ccnc(N)n1)NC(=O)[C@@H]1CCCN1C(=O)[C@@H](CCCCN)NC(=O)CN(CCN(CCN(CC(=O)O)CC(=O)O)CC(=O)O)CC(=O)O)C(=O)N[C@@H](CC(C)C)C(=O)O (single isomer, unassigned) [In-111-DTPA-DK-P-Aba(Apy)-R-P-Y-J-L, metal not drawn] | – | – | HPLC Evaluation of Urine Stability at 37EC, Urine, t = 0 ([1]; rat urine): 95.6%; remaining at 4 h [1, 3]: 6%; remaining at 4 h [2, 4]: 4.3%; HPLC Evaluation of Serum Stability at 37EC, Serum, t = 0 ([2]; human serum): 96.9% |
| CC[C@H](C)[C@H](NC(=O)[C@H](Cc1ccc(O)cc1)NC(=O)[C@@H]1CCCN1C(=O)[C@H](CCCNC(=N)N)NC(=O)C(NC(=O)[C@@H]1CCCN1C(=O)[C@@H](CCCCN)NC(=O)CN(CCN(CCN(CC(=O)O)CC(=O)O)CC(=O)O)CC(=O)O)C1CCN(C(=N)N)CC1)C(=O)N[C@@H](CC(C)C)C(=O)O (single isomer, unassigned) [In-111-DTPA-DK-P-G(PipAm)-R-P-Y-I-L, metal not drawn] | – | – | remaining at 4 h [1, 3]: 16.6%; remaining at 4 h [2, 4]: 19.5% |
| CC(C)C[C@H](NC(=O)[C@@H](NC(=O)[C@H](Cc1ccc(O)cc1)NC(=O)[C@@H]1CCCN1C(=O)[C@H](CCCNC(=N)N)NC(=O)C(NC(=O)[C@@H]1CCCN1C(=O)[C@@H](CCCCN)NC(=O)CN(CCN(CCN(CC(=O)O)CC(=O)O)CC(=O)O)CC(=O)O)C1CCN(C(=N)N)CC1)C(C)(C)C)C(=O)O (single isomer, unassigned) [In-111-DTPA-DK-P-G(PipAm)-R-P-Y-tBuG-L, metal not drawn] | – | – | remaining at 4 h ([1]; Table 4, rat urine, read-out: Urine Stability, Urine (t = 4 h)): 63%; remaining at 4 h ([2]; Table 4, human serum, read-out: Serum Stability, Serum (t = 4 h)): 87.5% |
| CC[C@H](C)[C@H](NC(=O)[C@H](Cc1ccc(O)cc1)NC(=O)[C@@H]1CCCN1C(=O)C(CCc1ccnc(N)n1)NC(=O)[C@H](CCCNC(=N)N)NC(=O)[C@@H]1CCCN1C(=O)[C@@H](CCCCN)NC(=O)CN(CCN(CCN(CC(=O)O)CC(=O)O)CC(=O)O)CC(=O)O)C(=O)N[C@@H](CC(C)C)C(=O)O (single isomer, unassigned) [In-111-DTPA-DK-P-R-Aba(Apy)-P-Y-I-L, metal not drawn] | – | – | HPLC Evaluation of Urine Stability at 37EC, Urine, t = 0 ([1]; rat urine): 96.7%; remaining at 4 h [1, 3]: 4.7%; remaining at 4 h [2, 4]: 15.7%; HPLC Evaluation of Serum Stability at 37EC, Serum, t = 0 ([2]; human serum): 98.1% |
| CC[C@H](C)[C@H](NC(=O)[C@H](Cc1ccc(O)cc1)NC(=O)[C@@H]1CCCN1C(=O)C(Cc1ccc(NC(=N)N)cc1)NC(=O)[C@H](CCCNC(=N)N)NC(=O)[C@@H]1CCCN1C(=O)[C@@H](CCCCN)NC(=O)CN(CCN(CCN(CC(=O)O)CC(=O)O)CC(=O)O)CC(=O)O)C(=O)N[C@@H](CC(C)C)C(=O)O (single isomer, unassigned) [In-111-DTPA-DK-P-R-F(Gu)-P-Y-I-L, metal not drawn] | – | – | HPLC Evaluation of Urine Stability at 37EC, Urine, t = 0 ([1]; rat urine): 90.4%; remaining at 4 h [1, 3]: 0%; remaining at 4 h [2, 4]: 16.3%; HPLC Evaluation of Serum Stability at 37EC, Serum, t = 0 ([2]; human serum): 94% |
| CC(C)C[C@H](NC(=O)[C@@H](NC(=O)[C@H](Cc1ccc(O)cc1)NC(=O)[C@@H]1CCCN1C(=O)[C@H](CCCNC(=N)N)NC(=O)[C@@H](NC(=O)[C@@H]1CCCN1C(=O)[C@H](C[C@H]1CC[C@H](CN)CC1)NC(=O)CN(CCN(CCN(CC(=O)O)CC(=O)O)CC(=O)O)CC(=O)O)C1CCN(C(=N)N)CC1)C(C)(C)C)C(=O)O [Compound XII, DTPA-trans-Cha(4-CH2NH2)-Pro-Gly(PipAm)-Arg-Pro-Tyr-tBuGly-Leu-OH] ({DTPA}-[X2]P[Gly(1-amidinopiperidin-4-yl)]RPY[Tle]L-OH) | 89.4% | 94.8% | – |
| CC(C)C[C@H](NC(=O)[C@@H](NC(=O)[C@H](Cc1ccc(O)cc1)NC(=O)[C@@H]1CCCN1C(=O)[C@H](CCCNC(=N)N)NC(=O)[C@@H](NC(=O)[C@@H]1CCCN1C(=O)[C@H](CC1CCNCC1)NC(=O)CN(CCN(CCN(CC(=O)O)CC(=O)O)CC(=O)O)CC(=O)O)C1CCN(C(=N)N)CC1)C(C)(C)C)C(=O)O [DTPA-(Pip)Ala-Pro-Gly(PipAm)-Arg-Pro-Tyr-tBuGly-Leu-OH] ({DTPA}-[Ala(piperidin-4-yl)]P[Gly(1-amidinopiperidin-4-yl)]RPY[Tle]L-OH) | 98.3% | 98.9% | – |
| CC[C@H](C)[C@H](NC(=O)[C@H](Cc1ccc(O)cc1)NC(=O)[C@@H]1CCCN1C(=O)[C@H](CCCNC(=N)N)NC(=O)[C@H](CCCNC(=N)N)NC(=O)CN(CCN(CCN(CC(=O)O)CC(=O)O)CC(=O)O)CC(=O)O)C(=O)N[C@@H](CC(C)C)C(=O)O [DTPA-Arg-Arg-Pro-Tyr-Ile-Leu-OH, reference compound] | 13.0% | 1.6% | % of compound present at 4 hours in urine ([1]; rat urine, 37EC, 4 hours): 13.0%; % of compound present at 4 hours in serum ([2]; human serum, 37EC, 4 hours): 1.6% |
| CC(C)C[C@@H](CN[C@@H](CC(C)C)C(N)=O)NC(=O)[C@H](Cc1ccc(O)cc1)NC(=O)[C@@H]1CCCN1C(=O)[C@H](CCCNC(=N)N)NC(=O)[C@H](Cc1ccc(NC(=N)N)cc1)NC(=O)[C@@H]1CCCN1C(=O)[C@@H](CCCCN)NC(=O)CN(CCN(CCN(CC(=O)O)CC(=O)O)CC(=O)O)CC(=O)O [DTPA-DLys-Pro-(4-Gu)Phe-Arg-Pro-Tyr-Leu-(Ψ-CH2-NH)-Leu-OH] ({DTPA}-[dK]P[Phe(4-guanidino)]RPY-X1; C-terminus assumed) | 95.7% | 76.2% | – |
| CC(C)C[C@H](NC(=O)[C@@H](NC(=O)[C@H](Cc1ccc(O)cc1)NC(=O)[C@@H]1CCCN1C(=O)[C@H](CCCNC(=N)N)NC(=O)[C@H](CC1CCN(C(=N)N)CC1)NC(=O)[C@@H]1CCCN1C(=O)[C@@H](CCCCN)NC(=O)CN(CCN(CCN(CC(=O)O)CC(=O)O)CC(=O)O)CC(=O)O)C(C)(C)C)C(=O)O [DTPA-DLys-Pro-Ala(PipAm)-Arg-Pro-Tyr-tBuGly-Leu-OH] ({DTPA}-[dK]P[Ala(1-amidino-4-piperidyl)]RPY[Tle]L-OH) | 89.8% | 96.5% | – |
| CC(C)C[C@H](NC(=O)[C@@H](NC(=O)[C@@H](Cc1ccc(O)cc1)NC(=O)[C@@H]1CCCN1C(=O)[C@H](CCCNC(=N)N)NC(=O)C(NC(=O)[C@@H]1CCCN1C(=O)[C@@H](CCCCN)NC(=O)CN(CCN(CCN(CC(=O)O)CC(=O)O)CC(=O)O)CC(=O)O)C1CCN(C(=N)N)CC1)C(C)(C)C)C(=O)O (stereo partly drawn) [DTPA-DLys-Pro-Gly(PipAm)-Arg-Pro-DTyr-tBuGly-Leu-OH] | 98.3% | 98.9% | – |
| CC(C)C[C@H](NC(=O)[C@@H](NC(=O)[C@H](Cc1ccc(O)cc1)NC(=O)[C@@H]1CCCN1C(=O)[C@H](CCCNC(=N)N)NC(=O)C(NC(=O)[C@@H]1CCCN1C(=O)[C@@H](CCCCN)NC(=O)CN(CCN(CCN(CC(=O)O)CC(=O)O)CC(=O)O)CC(=O)O)C1CCN(C(=N)N)CC1)C1CCCCC1)C(=O)O (stereo partly drawn) [DTPA-DLys-Pro-Gly(PipAm)-Arg-Pro-Tyr-Chg-Leu-OH] ({DTPA}-[dK]P[ξGly(4-Pip(1-amidino))]RPY[Chg]L-OH) | 7.0% | 75.2% | – |
| CC[C@H](C)[C@@H](COC(=O)N[C@@H](CC(C)C)C(=O)O)NC(=O)[C@H](Cc1ccc(O)cc1)NC(=O)[C@@H]1CCCN1C(=O)[C@H](CCCNC(=N)N)NC(=O)[C@@H](NC(=O)[C@@H]1CCCN1C(=O)[C@@H](CCCCN)NC(=O)CN(CCN(CCN(CC(=O)O)CC(=O)O)CC(=O)O)CC(=O)O)C1CCN(C(=N)N)CC1 [DTPA-DLys-Pro-Gly(PipAm)-Arg-Pro-Tyr-Ile^R-OCO-Leu-OH] ({DTPA}-[dK]P[Gly(1-amidinopiperidin-4-yl)]RPY[X3]L-OH) | 89.8% | 94.6% | – |
| CC(C)C[C@H](NC(=O)[C@@H](NC(=O)[C@H](Cc1ccc(O)cc1)NC(=O)[C@@H]1CCCN1C(=O)[C@H](CCCNC(=N)N)NC(=O)C(NC(=O)[C@@H]1CCCN1C(=O)[C@@H](CCCCN)NC(=O)CN(CCN(CCN(CC(=O)O)CC(=O)O)CC(=O)O)CC(=O)O)C1CCN(C(=N)N)CC1)C(C)(C)C)C(=O)NO (stereo partly drawn) [DTPA-DLys-Pro-Gly(PipAm)-Arg-Pro-Tyr-tBuGly-Leu-HA] ({DTPA}-[dK]P[ξGly(4-Pip(1-amidino))]RPY[Tle]L-{NHOH}) | 60.2% | 89.2% | – |
| CC(C)C[C@H](NC(=O)[C@@H](NC(=O)[C@H](Cc1ccc(O)cc1)NC(=O)[C@@H]1CCCN1C(=O)[C@H](CCCNC(=N)N)NC(=O)[C@H](CCC1CCN(C(=N)N)CC1)NC(=O)[C@@H]1CCCN1C(=O)[C@@H](CCCCN)NC(=O)CN(CCN(CCN(CC(=O)O)CC(=O)O)CC(=O)O)CC(=O)O)C(C)(C)C)C(=O)O [DTPA-DLys-Pro-homoAla(PipAm)-Arg-Pro-Tyr-tBuGly-Leu-OH] ({DTPA}-[dK]P[Abu(1-amidino-4-piperidyl)]RPY[Tle]L-OH) | 71.3% | 84.3% | – |
